In patent US10597388B2, “Pyridazinone herbicides” (FMC CORPORATION, priority 2014, dated 2020):

How the values were obtained:
Test in all cases: Test E greenhouse herbicide test, pre- and postemergence
Assay type in all cases: in vivo
[1] = tested on: crabgrass, large (large crabgrass, Digitaria sanguinalis); conditions: Preemergence
Procedure, shortened: (§1)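 Seeds were sown in silt loam and sprayed preemergence with compound in a non-phytotoxic solvent mix containing surfactant; for postemergence, plants at 2 to 18 cm (1- to 4-leaf stage) in peat-based potting medium were sprayed with the same formulation. After 14 to 21 d in a greenhouse, injury was rated visually against controls (0–100).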

[2] = tested on: Italian ryegrass (Lolium multiflorum)
Procedure, shortened: as §1

[3] = tested on: field bindweed (Convolvulus arvensis)
Procedure, shortened: as §1

[4] = tested on: nightshade (eastern black nightshade, Solanum ptycanthum); conditions: Preemergence
Procedure, shortened: as §1

[5] = tested on: dayflower (Virginia (VA) dayflower, Commelina virginica)
Procedure, shortened: as §1

[6] = tested on: momingglory (Ipomoea coccinea); conditions: Preemergence
Procedure, shortened: as §1

[7] = tested on: beggarticks (hairy beggarticks, Bidens pilosa)
Procedure, shortened: as §1

[8] = tested on: panicum, fall (fall panicum, Panicum dichotomiflorum)
Procedure, shortened: as §1

[9] = tested on: barnyardgrass (Echinochloa crus-galli)
Procedure, shortened: as §1

[10] = tested on: wild poinsettia (Euphorbia heterophylla)
Procedure, shortened: as §1

[11] = tested on: surinam grass (Brachiaria decumbens); conditions: Preemergence
Procedure, shortened: as §1

[12] = tested on: goosegrass (Eleusine indica); conditions: Preemergence
Procedure, shortened: as §1

corn (Zea mays) = tested on: corn (Zea mays)
Procedure, shortened: as §1

[13] = 62 g ai/ha, scale 0 to 100 (0 no effect, 100 complete control)
[14] = 125 g ai/ha, visual, scale 0 no effect to 100 complete control
[15] = 250 g ai/ha, visual, scale 0 no effect to 100 complete control
[16] = 62 g ai/ha, Preemergence, scale 0 to 100 (0 no effect, 100 complete control)
[17] = 125 g ai/ha, Postemergence, scale 0 to 100 (0 no effect, 100 complete control)
[18] = 125 g ai/ha, Preemergence, scale 0 to 100 (0 no effect, 100 complete control)
[19] = 250 g ai/ha, Postemergence, scale 0 to 100 (0 no effect, 100 complete control)
[20] = Preemergence, 31 g ai/ha, scale 0 to 100, 0 no effect, 100 complete control
[21] = Preemergence, 250 g ai/ha, visual, scale 0 no effect to 100 complete control
[22] = Preemergence, 125 g ai/ha, visual, scale 0 no effect to 100 complete control
[23] = 125 g ai/ha, scale 0 to 100 (0 no effect, 100 complete control)
[24] = 31 g ai/ha, scale 0 to 100, 0 no effect, 100 complete control
[25] = 62 g ai/ha, Postemergence, scale 0 to 100 (0 no effect, 100 complete control)
[26] = Postemergence, 31 g ai/ha, visual, scale 0 no effect to 100 complete control

## CCC(=O)Oc1c(C)nn(C)c(=O)c1-c1c(C)sc2c(C)cc(C)cc12 [Compound 28]
[1]; [13]
  Plant response rating, Crabgrass, Large: 35
[1]; [14]
  Plant response rating, Crabgrass, Large: 90
[1]; [15]
  Plant response rating, Crabgrass, Large: 90
[2]; [16]
  Plant response rating, Ryegrass, Italian: 80
[2]; [17]
  Plant response rating, Ryegrass, Italian: 75
[2]; [18]
  Plant response rating, Ryegrass, Italian: 95
[2]; [19]
  Plant response rating, Ryegrass, Italian: 75
[2]; [20]
  Plant response rating, Ryegrass, Italian: 70
[2]; [21]
  Plant response rating, Ryegrass, Italian: 100
[3]; [16]
  Plant response rating, Field Bindweed: 0
[3]; [17]
  Plant response rating, Field Bindweed: 60
[3]; [19]
  Plant response rating, Field Bindweed: 80
[3]; [20]
  Plant response rating, Field Bindweed: 0
[3]; [22]
  Plant response rating, Field Bindweed: 90
[3]; [21]
  Plant response rating, Field Bindweed: 75
[4]; [13]
  Plant response rating, Nightshade: 98
[4]; [23]
  Plant response rating, Nightshade: 98
[4]; [24]
  Plant response rating, Nightshade: 80
[4]; [15]
  Plant response rating, Nightshade: 100
[5]; [16]
  Plant response rating, Dayflower, VA: 10
[5]; [17]
  Plant response rating, Dayflower, VA: 70
[5]; [19]
  Plant response rating, Dayflower, VA: 80
[5]; [20]
  Plant response rating, Dayflower, VA: 5
[5]; [22]
  Plant response rating, Dayflower, VA: 65
[5]; [21]
  Plant response rating, Dayflower, VA: 70
[6]; [13]
  Plant response rating, Morningglory: 90
[6]; [23]
  Plant response rating, Morningglory: 95
[6]; [24]
  Plant response rating, Morningglory: 50
[6]; [15]
  Plant response rating, Morningglory: 100
[7]; [16]
  Plant response rating, Beggarticks: 100
[7]; [17]
  Plant response rating, Beggarticks: 100
[7]; [19]
  Plant response rating, Beggarticks: 100
[7]; [20]
  Plant response rating, Beggarticks: 100
[7]; [22]
  Plant response rating, Beggarticks: 100
[7]; [21]
  Plant response rating, Beggarticks: 100
[8]; [16]
  Plant response rating, Panicum, Fall: 95
[8]; [17]
  Plant response rating, Panicum, Fall: 70
[8]; [18]
  Plant response rating, Panicum, Fall: 98
[8]; [19]
  Plant response rating, Panicum, Fall: 90
[8]; [20]
  Plant response rating, Panicum, Fall: 90
[8]; [21]
  Plant response rating, Panicum, Fall: 100
[9]; [16]
  Plant response rating, Barnyardgrass: 20
[9]; [17]
  Plant response rating, Barnyardgrass: 50
[9]; [19]
  Plant response rating, Barnyardgrass: 60
[9]; [20]
  Plant response rating, Barnyardgrass: 20
[9]; [22]
  Plant response rating, Barnyardgrass: 65
[9]; [21]
  Plant response rating, Barnyardgrass: 90
[10]; [17]
  Plant response rating, Poinsettia, Wild: 50
[10]; [19]
  Plant response rating, Poinsettia, Wild: 40
[11]; [13]
  Plant response rating, Surinam Grass: 98
[11]; [23]
  Plant response rating, Surinam Grass: 100
[11]; [24]
  Plant response rating, Surinam Grass: 85
[11]; [15]
  Plant response rating, Surinam Grass: 98
[12]; [13]
  Plant response rating, Goosegrass: 60
[12]; [24]
  Plant response rating, Goosegrass: 35
[12]; [14]
  Plant response rating, Goosegrass: 75
[12]; [15]
  Plant response rating, Goosegrass: 90
Corn (Zea mays); [16]
  Plant response rating, Corn: 0
Corn (Zea mays); [17]
  Plant response rating, Corn: 5
Corn (Zea mays); [19]
  Plant response rating, Corn: 5
Corn (Zea mays); [20]
  Plant response rating, Corn: 0
Corn (Zea mays); [22]
  Plant response rating, Corn: 0
Corn (Zea mays); [21]
  Plant response rating, Corn: 0

## COC(=O)Oc1c(C)nn(C)c(=O)c1-c1c(C)sc2c(C)cc(C)cc12 [Compound 81]
[1]; [13]
  Plant response rating, Crabgrass, Large: 75
[1]; [23]
  Plant response rating, Crabgrass, Large: 90
[1]; [24]
  Plant response rating, Crabgrass, Large: 50
[1]; [15]
  Plant response rating, Crabgrass, Large: 98
[2]; [25]
  Plant response rating, Ryegrass, Italian: 70
[2]; [16]
  Plant response rating, Ryegrass, Italian: 95
[2]; [17]
  Plant response rating, Ryegrass, Italian: 75
[2]; [18]
  Plant response rating, Ryegrass, Italian: 90
[2]; [19]
  Plant response rating, Ryegrass, Italian: 80
[2]; [26]
  Plant response rating, Ryegrass, Italian: 50
[2]; [20]
  Plant response rating, Ryegrass, Italian: 75
[2]; [21]
  Plant response rating, Ryegrass, Italian: 100
[3]; [25]
  Plant response rating, Field Bindweed: 65
[3]; [16]
  Plant response rating, Field Bindweed: 0
[3]; [17]
  Plant response rating, Field Bindweed: 75
[3]; [18]
  Plant response rating, Field Bindweed: 75
[3]; [19]
  Plant response rating, Field Bindweed: 85
[3]; [26]
  Plant response rating, Field Bindweed: 60
[3]; [20]
  Plant response rating, Field Bindweed: 0
[3]; [21]
  Plant response rating, Field Bindweed: 100
[4]; [13]
  Plant response rating, Nightshade: 90
[4]; [23]
  Plant response rating, Nightshade: 100
[4]; [24]
  Plant response rating, Nightshade: 80
[4]; [15]
  Plant response rating, Nightshade: 98
[5]; [25]
  Plant response rating, Dayflower, VA: 70
[5]; [16]
  Plant response rating, Dayflower, VA: 15
[5]; [17]
  Plant response rating, Dayflower, VA: 80
[5]; [18]
  Plant response rating, Dayflower, VA: 35
[5]; [19]
  Plant response rating, Dayflower, VA: 80
[5]; [26]
  Plant response rating, Dayflower, VA: 60
[5]; [20]
  Plant response rating, Dayflower, VA: 10
[5]; [21]
  Plant response rating, Dayflower, VA: 65
[6]; [13]
  Plant response rating, Morningglory: 85
[6]; [23]
  Plant response rating, Morningglory: 100
[6]; [24]
  Plant response rating, Morningglory: 60
[6]; [15]
  Plant response rating, Morningglory: 100
[7]; [25]
  Plant response rating, Beggarticks: 100
[7]; [16]
  Plant response rating, Beggarticks: 100
[7]; [17]
  Plant response rating, Beggarticks: 100
[7]; [18]
  Plant response rating, Beggarticks: 100
[7]; [19]
  Plant response rating, Beggarticks: 100
[7]; [26]
  Plant response rating, Beggarticks: 90
[7]; [20]
  Plant response rating, Beggarticks: 80
[7]; [21]
  Plant response rating, Beggarticks: 100
[8]; [25]
  Plant response rating, Panicum, Fall: 80
[8]; [16]
  Plant response rating, Panicum, Fall: 100
[8]; [17]
  Plant response rating, Panicum, Fall: 85
[8]; [18]
  Plant response rating, Panicum, Fall: 100
[8]; [19]
  Plant response rating, Panicum, Fall: 90
[8]; [26]
  Plant response rating, Panicum, Fall: 85
[8]; [20]
  Plant response rating, Panicum, Fall: 98
[8]; [21]
  Plant response rating, Panicum, Fall: 100
[9]; [25]
  Plant response rating, Barnyardgrass: 20
[9]; [16]
  Plant response rating, Barnyardgrass: 25
[9]; [17]
  Plant response rating, Barnyardgrass: 30
[9]; [18]
  Plant response rating, Barnyardgrass: 35
[9]; [19]
  Plant response rating, Barnyardgrass: 50
[9]; [26]
  Plant response rating, Barnyardgrass: 20
[9]; [20]
  Plant response rating, Barnyardgrass: 0
[9]; [21]
  Plant response rating, Barnyardgrass: 75
[10]; [25]
  Plant response rating, Poinsettia, Wild: 40
[10]; [16]
  Plant response rating, Poinsettia, Wild: 5
[10]; [17]
  Plant response rating, Poinsettia, Wild: 40
[10]; [18]
  Plant response rating, Poinsettia, Wild: 30
[10]; [19]
  Plant response rating, Poinsettia, Wild: 50
[10]; [26]
  Plant response rating, Poinsettia, Wild: 30
[10]; [20]
  Plant response rating, Poinsettia, Wild: 0
[10]; [21]
  Plant response rating, Poinsettia, Wild: 60
[11]; [13]
  Plant response rating, Surinam Grass: 90
[11]; [23]
  Plant response rating, Surinam Grass: 95
[11]; [24]
  Plant response rating, Surinam Grass: 70
[11]; [15]
  Plant response rating, Surinam Grass: 95
[12]; [13]
  Plant response rating, Goosegrass: 40
[12]; [23]
  Plant response rating, Goosegrass: 70
[12]; [24]
  Plant response rating, Goosegrass: 20
[12]; [15]
  Plant response rating, Goosegrass: 80
Corn (Zea mays); [25]
  Plant response rating, Corn: 0
Corn (Zea mays); [16]
  Plant response rating, Corn: 0
Corn (Zea mays); [17]
  Plant response rating, Corn: 5
Corn (Zea mays); [18]
  Plant response rating, Corn: 0
Corn (Zea mays); [19]
  Plant response rating, Corn: 5
Corn (Zea mays); [26]
  Plant response rating, Corn: 0
Corn (Zea mays); [20]
  Plant response rating, Corn: 0
Corn (Zea mays); [21]
  Plant response rating, Corn: 0
